These results are taken from publication PMC11877520, “Anthelmintic Potential of Conjugated Long-Chain Fatty Acids Isolated from the Bioluminescent Mushroom Neonothopanus gardneri” (Journal of Natural Products, 2025).

“Also recorded” adds a separate entry of the source. Read-outs that look alike come from different tables or passages of the source.

One data set deals with Schistosoma mansoni. As to the kind of experiment: In vitro antischistosomal assay on adult schistosomes (parasite viability by microscope). It is filed as cell-based, Schistosoma mansoni (BH strain). As to conditions: for EC50: Schistosoma mansoni. The procedure:
The in vitro antischistosomal potential of compounds 1–5 was evaluated at various concentrations on S. mansoni (male and female) to determine their effective concentrations at 50% (EC50). Praziquantel (PZQ) was employed as a positive control, while vehicle-treated parasites (0.5% DMSO) were a negative control. […] The S. mansoni (BH strain) life cycle was sustained by passage through Biomphalaria glabrata snails and Swiss mice at the Research Center on Neglected Diseases (Guarulhos University, SP, Brazil). Vero cells from the American Type Culture Collection (ATCC) were cultured in Dulbecco’s modified Eagle medium (DMEM) supplemented with 10% heat-inactivated fetal calf serum and 2 mM L-glutamine (Vitrocell, Campinas, SP, Brazil). C. elegans (strain N2) was maintained at 22 °C on nematode growth medium (NGM) agar seeded with Escherichia coli strain OP50, following standard protocols.[26] The in vitro antischistosomal assay followed established procedures.[27] Adult schistosomes from infected mice were exposed to test samples (0.78–50 μM) in RPMI 1640 medium supplemented with 5% heat-inactivated fetal calf serum, penicillin (100 U/mL), and streptomycin (100 μg/mL) in a 24-well culture plate. Test samples, including PZQ, were dissolved in DMSO and tested in triplicate with experiments repeated three times. A BEL Engineering microscope assessed parasite viability at 24, 48, and 72 h. Statistical analysis was conducted using GraphPad Prism 8.0. CE50 and CC50 values were determined from sigmoid dose–response curves. Selectivity indices were calculated by dividing CC50 values obtained on Vero cells by […].[30]

A short description of data set [1]: Cytotoxicity on Vero cells (MTT). Type of data set: cell-based. To be noted: chlorocebus sabaeus; Vero cells, 72 h, MTT, 6.25–200 μM tested; read-out: Vero cell CC50. The protocol: (§1) The S. mansoni (BH strain) life cycle was sustained by passage through Biomphalaria glabrata snails and Swiss mice at the Research Center on Neglected Diseases (Guarulhos University, SP, Brazil). Vero cells from the American Type Culture Collection (ATCC) were cultured in Dulbecco’s modified Eagle medium (DMEM) supplemented with 10% heat-inactivated fetal calf serum and 2 mM L-glutamine (Vitrocell, Campinas, SP, Brazil). C. elegans (strain N2) was maintained at 22 °C on nematode growth medium (NGM) agar seeded with Escherichia coli strain OP50, following standard protocols.[26]
(§2) Cytotoxicity was assessed using a previously established method.[20],[28] Cells were plated in 96-well plates and treated with test compounds (6.25–200 μM) and doxorubicin (DXR) at 10 μM as a positive control for 72 h. Cell viability was determined using an MTT solution, and absorbance was measured at 595 nm using a microplate spectrophotometer. The assay was performed in triplicate, and the results are expressed as a percentage of the control.
(§3) Statistical analysis was conducted using GraphPad Prism 8.0. CE50 and CC50 values were determined from sigmoid dose–response curves. Selectivity indices were calculated by dividing CC50 values obtained on Vero cells by CC50 values determined on S. mansoni.[30]

The next data set deals with Vero cells. The data set is described as follows: Cytotoxicity on Vero cells (MTT). Type of data set: cell-based. To be noted: for SI (male worms), selectivity index SI = CC50/EC50: Vero CC50 / S. mansoni male EC50. The procedure: as §1, §2, §3
The subject of a further data set is Caenorhabditis elegans. As to the kind of experiment: Toxicity assay with C. elegans (viability by mobility and form). Type of data set: in vivo, Caenorhabditis elegans (strain N2). To be noted: L4-stage worms, 24 h, 25 to 200 μM. The procedure:
as §1
Toxicity assays with C. elegans were performed as previously described.[29] For 24 h, 26 L4-stage worms were exposed to samples at concentrations ranging from 25 to 200 μM, including levamisole (LVZ) at 10 μM as the positive control. Viability was assessed based on mobility and form using an inverted microscope, with experiments repeated three times.

Where [2] appears, read: adult female worms, in vitro, 72 h, 0.78–50 μM tested, read-out: S. mansoni female EC50.
Setting [3] is: adult male worms, in vitro, 72 h, 0.78–50 μM tested, read-out: S. mansoni male EC50.
The mark [4] stands for this setting: adult schistosomes, ex vivo / in vitro, read-out: EC50 against S. mansoni (sex not specified).

A word on the EC50: it is the concentration needed to bring the measured effect to its halfway point. A word on the CC50: it is the concentration that lowers cell viability or growth by half.

Consider `CCCCCCCC/C=C\[C@@H](O)[C@H](O)CCCCCC(=O)O` (stereo in doubt) [Compound 3, (7R,8R,9Z)-7,8-dihydroxyoctadec-9-enoic acid], for which the half-maximal effective concentration (EC50) is 32.6 ± 5.1 µM in the data set with Schistosoma mansoni (setting [2]), 8.3 ± 2.4 µM in the data set with Schistosoma mansoni (setting [3]) and less than 10 µM with Schistosoma mansoni (setting [4]). The CC50 at 72 h in data set [1] is greater than 200 µM. In addition, the “SI (female worms), selectivity index SI = CC50/EC50” value with Vero cells (Vero CC50 / S. mansoni female EC50) is on record as greater than 6.13. Further, the “SI (male worms), selectivity index SI = CC50/EC50” value in the data set with Vero cells is greater than 24.09. In the data set with Vero cells (Vero cells, 72 h), the “Toxicity to mammalian cells (in words)” value is listed as “no toxicity”. Further, the “Toxicity to C. elegans (in words)” value in the data set on Caenorhabditis elegans was “did not show toxicity; also recorded: no toxicity”.

`CCCCC[C@H](O)[C@@H](O)/C=C/C=C/C(=O)CCCCCC(=O)O` [Compound 1, (8E,10E,12S,13S)-12,13-dihydroxy-7-oxo-octadeca-8,10-dienoic acid]: the EC50 in the data set on Schistosoma mansoni (setting [2]), in the data set on Schistosoma mansoni (setting [3]) and in the data set on Schistosoma mansoni (setting [4]) was greater than 50 µM in each case.

Regarding `CCCCCC(=O)/C=C/C=C/[C@H](O)[C@@H](O)CCCCCC(=O)O` [Compound 2, (7S,8S,9E,11E)-7,8-dihydroxy-13-oxo-octadeca-9,11-dienoic acid], the EC50 in the data set with Schistosoma mansoni (setting [2]), in the data set with Schistosoma mansoni (setting [3]) and in the data set with Schistosoma mansoni (setting [4]) was greater than 50 µM throughout.

Regarding `O=C(O)/C=C/CCCCCCC(=O)O` [Compound 4, (2E)-dec-2-ene-1,10-dioic acid], the EC50 in the data set on Schistosoma mansoni (setting [2]), with Schistosoma mansoni (setting [3]) and in the data set on Schistosoma mansoni (setting [4]) was greater than 50 µM in each case.

Turning to `CC1(C)CCC(=O)[C@@]23C(=O)OC4OCC(=CC[C@@H]12)[C@H]43` (some centres unmarked) [Compound 5, marasmeno-1,15-dione], the concentration giving a half-maximal response (EC50) with Schistosoma mansoni (setting [2]), with Schistosoma mansoni (setting [3]) and in the data set on Schistosoma mansoni (setting [4]) was greater than 50 µM throughout. In the data set with Schistosoma mansoni (adult schistosomes, in vitro, up to 50 μM), the “Antiparasitic activity against S. mansoni (in words)” value is “no antiparasitic activity was detected”.

Consider `O=C(C1CCCCC1)N1CC(=O)N2CCc3ccccc3C2C1` (centres unmarked) [PZQ, Praziquantel, reference compound], for which the values for the half-maximal effective concentration (EC50) in the data set with Schistosoma mansoni (setting [2]), in the data set on Schistosoma mansoni (setting [3]) and with Schistosoma mansoni (setting [4]) were 1.2 ± 0.1 µM, 0.9 ± 0.1 µM and less than 2 µM, respectively. In data set [1], the CC50 at 72 h was greater than 200 µM. In addition, the “SI (male worms), selectivity index SI = CC50/EC50” value in the data set on Vero cells is greater than 250.
